Laboratory results from patent US20060089412A1, “Pharmaceutical composition for the treatment of non-alcoholic fatty liver disease” (AJINOMOTO CO. INC., priority 2004, published 2006).

Assays:
[1] = Body weight in HFD-induced fatty liver rat model; format: in vivo, Male GK rats; conditions: for body weight increase compared with HFD alone: 6 weeks, HFD + drug versus HFD alone; for Body Weight, Pre: before feeding
Source text: Male GK rats (9 weeks of age, 6 rats per group) received HFD (containing 30% beef tallow) for 6 weeks.

[2] = tested on: HFD-induced fatty liver rat model; assay: Hepatic triglyceride contents in high-fat diet (HFD)-induced fatty liver rat model; format: in vivo, Male GK rats; conditions: diet mixed with 4% L-alanine for 6 weeks; one rat of 6, in the level of SD group
Protocol: It has been supposed that the increase of the amount of fat intake in the last few decades is one of the causes of the recent increase of the number of patients with NASH. Therefore, the effect of L-alanine on the hepatic triglyceride contents in the high-fat diet (hereinafter HFD)-induced fatty liver rat model.
Male GK rats (9 weeks of age, 6 rats per group) received HFD (containing 30% beef tallow) for 6 weeks. Triglyceride contents in the liver tissue was increased to 29.1 to 49.3 mg per gram of liver tissue, compared with those (14.1 to 24.2 mg) in the group fed with standard diet (containing 5% soy-been oil; hereinafter SD).
Pioglitazone is a drug, which acts as an insulin-sensitizer for the patients with diabetes. Recent clinical pilot studies raise the possibility of clinical utility of pioglitazone for NASH.
On the other hand, in the group of 6 rats received CDD mixed with 4% L-alanine for 6 weeks, one rat is reduced in the liver triglyceride contents (19.6 mg) in the level of SD group.

[3] = tested on: choline-deficient diet (CDD) rat model; assay: Choline-deficient diet (CDD) rat model of NASH-like liver change; format: in vivo, Male Wistar rats; conditions: CDD mixed with 4% L-alanine for 4 weeks
Source text: Male Wistar rats (7 weeks of age, 5 rats per group) received CDD (Dyets Co.) for 4 weeks.
On the other hand, in the group of 5 rats received CDD mixed with 4% L-alanine for 4 weeks, one rat is normalized in liver weight (10.6 g).

| SMILES | body weight increase compared with HFD alone [1] | Body Weight, Pre ([1]; means ± SD (n = 6)) [g] | liver triglyceride contents [2] [mg] | liver weight ([3]; one rat of 5 (normalized), CDD alone 14.5 to 20.0 g) [g] | histological fat accumulation in the liver ([3]; the one rat of 5 with normalized liver weight) | Body Weight, Post (at 6 weeks) ([1]; after 6 weeks of HFD mixed with drug, means ± SD (n = 6)) [g] |
| --- | --- | --- | --- | --- | --- | --- |
| CCc1ccc(CCOc2ccc(CC3SC(=O)NC3=O)cc2)nc1 (centres unmarked) [pioglitazone, reference compound] | significantly more increased | 222.1 ± 9.9 |  |  |  |  |
| C[C@H](N)C(=O)O [L-alanine] | not observed | 219.8 ± 13.0 | 19.6 | 10.6 | not recognized | 331.8 ± 20.5 |
